Test results from ChEMBL document CHEMBL1151958, “Improving metabolic stability by glycosylation: bifunctional peptide derivatives that are opioid receptor agonists and neurokinin 1 receptor antagonists” (J Med Chem, 2009).

Experiments:
[1] = target: Delta-type opioid receptor (Homo sapiens, UniProt P41143); assay: Displacement of [3H]DPDPE from human delta opioid receptor expressed in mouse HN9.10 cell membrane; assay type: cell membranes
Substance-P receptor [2] = target: Substance-P receptor (Homo sapiens, UniProt P25103); assay: Displacement of [3H]substance P from human NK1 receptor expressed in CHO cell membrane; assay type: cell membranes
[3] = Metabolic stability in rat plasma assessed as half life at 37 degC; assay type: ADME, cell-free
Mu-type opioid receptor = Mu-type opioid receptor (Rattus norvegicus, UniProt P33535); assay: Displacement of [3H]DAMGO from rat mu opioid receptor expressed in mouse HN9.10 cell membrane; assay type: cell membranes
Substance-P receptor [4] = target: Substance-P receptor (Rattus norvegicus, UniProt P14600); assay: Displacement of [3H]substance P from rat NK1 receptor expressed in CHO cell membrane; assay type: cell membranes
Chain of Substance-P receptor (Rattus norvegicus, UniProt P14600) (P14600 whole entry): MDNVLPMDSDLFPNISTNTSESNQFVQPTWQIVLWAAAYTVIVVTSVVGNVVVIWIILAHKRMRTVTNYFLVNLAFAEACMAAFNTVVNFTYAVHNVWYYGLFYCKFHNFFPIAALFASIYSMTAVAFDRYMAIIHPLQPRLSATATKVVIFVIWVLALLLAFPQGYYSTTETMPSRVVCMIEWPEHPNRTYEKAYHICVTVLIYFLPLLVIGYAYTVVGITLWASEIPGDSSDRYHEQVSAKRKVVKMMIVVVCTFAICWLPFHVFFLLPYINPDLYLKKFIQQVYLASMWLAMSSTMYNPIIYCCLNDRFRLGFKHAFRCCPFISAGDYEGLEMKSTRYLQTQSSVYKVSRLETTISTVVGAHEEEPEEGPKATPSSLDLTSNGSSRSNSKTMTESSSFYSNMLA

Chain of Delta-type opioid receptor (P41143 whole entry): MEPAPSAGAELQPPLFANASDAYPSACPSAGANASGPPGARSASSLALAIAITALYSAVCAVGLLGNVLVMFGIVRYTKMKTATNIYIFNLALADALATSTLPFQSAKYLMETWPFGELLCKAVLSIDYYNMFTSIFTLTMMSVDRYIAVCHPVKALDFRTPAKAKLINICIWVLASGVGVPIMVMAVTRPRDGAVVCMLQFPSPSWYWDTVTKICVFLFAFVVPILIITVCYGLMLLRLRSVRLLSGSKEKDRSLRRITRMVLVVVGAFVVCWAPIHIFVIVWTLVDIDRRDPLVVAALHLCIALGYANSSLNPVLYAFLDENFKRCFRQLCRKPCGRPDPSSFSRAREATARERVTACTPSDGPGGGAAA
Chain of Substance-P receptor (Homo sapiens, UniProt P25103) (P25103 whole entry): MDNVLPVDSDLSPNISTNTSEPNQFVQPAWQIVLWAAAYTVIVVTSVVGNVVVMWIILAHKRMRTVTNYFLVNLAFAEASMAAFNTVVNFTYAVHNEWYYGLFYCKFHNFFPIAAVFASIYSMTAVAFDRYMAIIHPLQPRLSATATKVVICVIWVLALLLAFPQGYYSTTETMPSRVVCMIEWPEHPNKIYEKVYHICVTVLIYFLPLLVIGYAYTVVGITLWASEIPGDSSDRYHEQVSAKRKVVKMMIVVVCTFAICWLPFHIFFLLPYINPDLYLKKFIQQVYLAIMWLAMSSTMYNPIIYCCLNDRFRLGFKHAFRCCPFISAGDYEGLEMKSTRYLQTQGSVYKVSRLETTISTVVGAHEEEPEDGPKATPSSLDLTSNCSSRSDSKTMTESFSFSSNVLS
Chain of Mu-type opioid receptor (P33535 whole entry): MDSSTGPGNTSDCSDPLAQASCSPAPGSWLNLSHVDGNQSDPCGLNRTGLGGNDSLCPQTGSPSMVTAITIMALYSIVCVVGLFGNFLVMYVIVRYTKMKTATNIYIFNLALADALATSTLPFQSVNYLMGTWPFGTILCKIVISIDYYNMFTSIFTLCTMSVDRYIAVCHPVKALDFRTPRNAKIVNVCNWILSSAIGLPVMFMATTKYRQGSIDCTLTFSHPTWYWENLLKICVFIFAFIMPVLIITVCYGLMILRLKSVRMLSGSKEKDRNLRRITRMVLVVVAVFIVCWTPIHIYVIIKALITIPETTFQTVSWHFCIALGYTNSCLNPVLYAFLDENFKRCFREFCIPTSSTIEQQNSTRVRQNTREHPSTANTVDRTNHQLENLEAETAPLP

| Structure (SMILES) | IC50 [1] [nM] | IC50 (Substance-P receptor [2]) [nM] | half-life [3] [h] | IC50 (Mu-type opioid receptor) [nM] | IC50 (Substance-P receptor [4]) [nM] |
| --- | --- | --- | --- | --- | --- |
| CCCC[C@H](NC(=O)[C@H](Cc1ccccc1)NC(=O)CNC(=O)[C@@H](C)NC(=O)[C@@H](N)Cc1ccc(O)cc1)C(=O)N1CCC[C@H]1C(=O)N[C@@H](CC(C)C)C(=O)N[C@@H](Cc1c[nH]c2ccccc12)C(=O)NCc1cc(C(F)(F)F)cc(C(F)(F)F)c1 | 2.14 | 0.00269 | > 6 | – | – |
| CCCC[C@H](NC(=O)[C@H](Cc1ccccc1)NC(=O)CNC(=O)[C@@H](C)NC(=O)[C@@H](N)Cc1ccc(O)cc1)C(=O)N1CCC[C@H]1C(=O)N[C@@H](CO[C@@H]1O[C@H](CO)[C@@H](O)[C@H](O)[C@H]1O)C(=O)N[C@@H](Cc1c[nH]c2ccccc12)C(=O)NCc1cc(C(F)(F)F)cc(C(F)(F)F)c1 | 7.94 | – | > 6 | 17 | 50.1 |
| CCCC[C@H](NC(=O)[C@H](Cc1ccccc1)NC(=O)CNC(=O)[C@@H](C)NC(=O)[C@@H](N)Cc1ccc(O)cc1)C(=O)N[C@@H](CO[C@@H]1O[C@H](CO)[C@@H](O)[C@H](O)[C@H]1O)C(=O)N[C@@H](CC(C)C)C(=O)N[C@@H](Cc1c[nH]c2ccccc12)C(=O)NCc1cc(C(F)(F)F)cc(C(F)(F)F)c1 | – | 4.17 | – | 7080 | – |
| CC(C)C[C@H](NC(=O)[C@@H]1CCCN1C(=O)[C@H](CO[C@@H]1O[C@H](CO)[C@@H](O)[C@H](O)[C@H]1O)NC(=O)[C@H](Cc1ccccc1)NC(=O)CNC(=O)[C@@H](C)NC(=O)[C@@H](N)Cc1ccc(O)cc1)C(=O)N[C@@H](Cc1c[nH]c2ccccc12)C(=O)NCc1cc(C(F)(F)F)cc(C(F)(F)F)c1 | 123 | 0.000617 | – | 759 | 4.47 |
